This is an account of results in patent US4769378A, “Indenopyrimidine aromatase inhibitors” (Eli Lilly and Company, priority 1986, dated 1988).

Read-outs that look alike come from different tables or passages of the source.

One test has as its target T1, aromatase (Rattus norvegicus, UniProt P22443).
T1 construct: ovarian microsomes are obtained from rats treated with pregnant mares serum gonadotropin; from tissue; host or cells: rat ovary microsomes (rats treated with pregnant mares serum gonadotropin)
T1 sequence (P22443 1-508): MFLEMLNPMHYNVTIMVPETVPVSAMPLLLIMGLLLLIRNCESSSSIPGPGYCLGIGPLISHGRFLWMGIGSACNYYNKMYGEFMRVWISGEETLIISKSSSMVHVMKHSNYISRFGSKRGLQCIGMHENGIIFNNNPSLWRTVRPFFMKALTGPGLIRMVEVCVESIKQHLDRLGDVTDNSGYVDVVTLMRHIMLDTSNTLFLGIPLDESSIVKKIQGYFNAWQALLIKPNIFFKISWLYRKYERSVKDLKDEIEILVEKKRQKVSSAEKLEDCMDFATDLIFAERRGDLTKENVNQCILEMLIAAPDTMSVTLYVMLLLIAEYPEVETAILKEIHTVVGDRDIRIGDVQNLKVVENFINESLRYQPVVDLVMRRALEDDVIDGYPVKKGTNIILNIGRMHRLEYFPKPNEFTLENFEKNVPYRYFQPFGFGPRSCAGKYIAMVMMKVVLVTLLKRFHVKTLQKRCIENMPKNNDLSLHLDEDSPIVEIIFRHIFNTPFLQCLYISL
As to the kind of experiment: Aromatase inhibition in the rat ovarian microsome assay. In kind it is biochemical. To be noted: substrate (androstenedione) concentration 0.1 μM; rat ovarian microsomes; read-out: EC50 (concentration of compound required to achieve 50% inhibition of aromatase activity). How it is done: In this test system, ovarian microsomes are obtained from rats treated with pregnant mares serum gonadotropin. Test compounds are added to reaction vials containing 0.1 μM 4-androstene-3,17-dione, 100,000 dpm 1,2[^3 H]-androstenedione, the microsomes and a NADPH generating system. The concentrations of the inhibitors tested ranged between 5 and 10000 nM. […] Potency is determined based on the concentration of inhibitor in nM required to produce a 50% inhibition of enzyme activity (EC50) when the concentration of substrate (androstenedione) is 0.1 μM.

The test system of test [1] is Estrogen synthesis (aromatization). In words: Estrogen Synthesis Inhibition in Rats.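 On Uterine Wt. %: 100% equals the stimulated control's weight gain over the unstimulated control.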 The settings on record: Rattus norvegicus, po, 168 h, gavage; for response vs control in vivo at 3 mg/kg: 3 mg/kg × 7 days; for response vs control in vivo at 10 mg/kg: 10 mg/kg × 7 days; for response vs control in vivo at 30 mg/kg: 30 mg/kg × 7 days. It is filed as in vivo, immature female Wistar rats. How it is done: By virtue of their ability to inhibit the enzyme aromatase, the compounds of this invention are able to inhibit the synthesis of estrogens in mammals, thereby making the compounds useful in the treatment of estrogen-dependent diseases, such as breast cancer.
Immature female Wistar rats (45-55 grams) were divided into control and test groups of 2-8 animals each. Test compounds were administered for seven days daily by gavage in corn oil. Control animals received corn oil without the test compound. Beginning on the fourth day of the test, all animals treated with the test compound and one half of the control animals were given a subcutaneous injection of 1.0 mg of testosterone propionate in corn oil. The remaining control animals received only an equivalent volume of corn oil. On the seventh day of the test, rats treated with testosterone propionate were injected subcutaneously with 100 μCi of [^3 H]-testosterone in 50 μl of saline-ethanol (3:1).
After two hours, the animals were killed by decapitation. Uteri were isolated, trimmed of extraneous connective tissue, and weighed. […] In the control animals treated with testosterone propionate, estrogens produced by aromatization stimulated the uterus resulting in an increase in weight.
Ovaries from rats treated with [^3 H]-testosterone were excised, cleaned of extraneous tissue, and homogenized in 2.5 ml of a 1.0 mM potassium phosphate buffer containing 3.0 mM MgCl2.6H2 O, 320 mM sucrose, and 0.25% Triton X-100 (polyethylene glycol p-isooctyl phenyl ether, Rohm and Haas) at pH 6.5. The ovarian steroids were extracted with 1.5 ml of 9:1 toluene/ethanol to which had been added 25 to 100 mcg each of unlabelled estradiol, estriol, and estrone, and approximately 1000 dpm of [^14 C]-estradiol. The samples were vortexed, centrifuged at 500×g for 10 minutes, and the organic phase was transferred to a conical vial. Two additional extractions were performed on the residue in the same way. The pooled organic extracts were evaporated for subsequent thin-layer chromatography.
Ovarian proteins were precipitated by the addition of 5.0 ml of ethanol to the remaining aqueous phase. After an overnight incubation at 4° C., the samples were centrifuged at 1500×g for 10 minutes. The supernatant was discarded and the pellet was dissolved in 0.3 N potassium hydroxide. Protein was determined according to the method of Bradford, Analytical Biochemistry, 72, 248 (1976).
The organic residue from each above extraction was redissolved in 9:1 dichloromethane/methanol. The solution of each sample was applied to separate silica gel thin layer chromatography plates which contained a fluorescent indicator. The plates were developed the first dimension with 160:38:1.5:0.5 dichloromethane/ethyl acetate/methanol/acetic acid to within 3 cm of the top of the plate. After air-drying, the plate was developed in the second dimension with 180:19:1 dichloromethane/methanol/ammonium hydroxide. The plate was air-dried and viewed under 254 nm UV light.
The visible spots were marked and the plates were sprayed with primulin (0.001% in 4:1 acetone/water) according to the method of Wright, J. Chromatography, 59, 220 (1971) which allowed for the identification of additional steroids under 365 nm UV light. The spots were scraped from the plate using a glass wool plugged Pasteur pipet attached to a vacuum line. The steroids were eluted directly into scintillation vials by the addition of 0.2 ml of dichloromethane followed by two washes each of 2.0 ml of methanol. The organic solvent was evaporated and 10.0 ml of scintillation fluid (Beckman Ready Solv-NA) was added to the vials. Samples were analyzed by liquid scintillation spectrometry and the corrections were made based on the recoveries of the [^14 C]-steroid.
In Table 2, values for uterine weight are expressed as the respective weights of drug treated (DT), unstimulated corn oil control (UC), and stimulated corn oil control (SC) according to the calculation %=100 (DT-UC)/(SC-UC). […]

Test [2] relates to DMBA-induced mammary tumors. In words: DMBA-induced Mammary Tumor Inhibition. It is filed as in vivo, female Sprague-Dawley rats. Here is the method: Mammary tumors were produced in female Sprague-Dawley rats which were 50-60 days old by the gavage administration of 20 mg of 7,12-dimethylbenz[a]anthracene (DMBA). About six weeks after DMBA administration, the mammary glands were palpated at weekly intervals for the appearance of tumors. Whenever one or more tumors appeared and were measurable in an animal, that animal was selected for experimentation. […] Each control and test group contained 5-8 animals. Each test compound was administered in corn oil once daily by gavage. Every experiment included a group of control rats having tumors and were given corn oil vehicle by gavage. […] The area of each tumor was calculated by multiplying the shortest and longest diameters of the tumor. The treatment and measurement of animals continued for 4-6 weeks at which time the final areas of the tumors were determined. For each compound (and control) at each dose level, the change in the mean tumor area was determined. The mean change was analyzed for its significance using Dunnett's t-test.

The subject of another test is breast cancer. The settings on record: Cancer Research, Vol. 42, Suppl 8 (1982); cited from earlier work.
Where [3] appears, read: 100 (DT-UC)/(SC-UC), read-out: Uterine Wt. %.
[4] abbreviates: ovaries, percent of testosterone-treated controls, read-out: % steroid concentration, estradiol.
Where [5] appears, read: ovaries, percent of testosterone-treated controls, read-out: % steroid concentration, estrone.

Turning to `Clc1ccc(C2c3ccc(Cl)cc3-c3ncncc32)cc1` (stereo not drawn) [Example 1, 8-chloro-5-(4-chlorophenyl)-5H-indeno[1,2-d]pyrimidine], at aromatase, the EC50 worked out at 24 nM. Also, the response vs control in vivo at 3 mg/kg in test [1] (setting [3]) came out at 50.2%; in test [1] (setting [4]), 31.5%; in test [1] (setting [5]), 31.5%. Also, the figures for the response vs control in vivo at 10 mg/kg in test [1] (setting [3]), in test [1] (setting [4]) and in test [1] (setting [5]) were 37.3%, 17.2% and 31.4%, respectively. Besides, the response vs control in vivo at 30 mg/kg in test [1] (setting [3]) was found to be 20.6%; in test [1] (setting [4]) it was 23.6%; in test [1] (setting [5]) it was 118%. In addition, the “Final Tumor Area ± S.E.” value in test [2] (Test I, 3 mg/kg daily by gavage, 4 weeks, control 741 ± 193) was determined as 162 ± 93 mm^2; in test [2] (Test I, 10 mg/kg daily by gavage, 4 weeks, control 741 ± 193) it was 74 ± 45 mm^2; in test [2] (Test I, 30 mg/kg daily by gavage, 4 weeks, control 741 ± 193), 6 ± 6 mm^2.
As to `Clc1ccc(C2c3ccccc3-c3ncncc32)cc1` (stereo not drawn) [Example 2, 5-(4-chlorophenyl)-5H-indeno[1,2-d]pyrimidine], the EC50 at aromatase stood at 21 nM. For the same compound, the response vs control in vivo at 3 mg/kg in test [1] (setting [3]) stood at 49.1%; in test [1] (setting [4]), 40.5%; in test [1] (setting [5]) it was 106%. Further, the response vs control in vivo at 30 mg/kg in test [1] (setting [3]) was determined as 33.3%; in test [1] (setting [4]), 19.4%; in test [1] (setting [5]), 83.2%. Further, the “Final Tumor Area ± S.E.” value in test [2] (Test II, 10 mg/kg daily by gavage, 4 weeks, control 698 ± 78) is on record as 287 ± 94 mm^2; in test [2] (Test II, 30 mg/kg daily by gavage, 4 weeks, control 698 ± 78) it was 814 ± 223 mm^2; in test [2] (Test II, 50 mg/kg daily by gavage, 4 weeks, control 698 ± 78) it was 552 ± 177 mm^2.
With `Fc1ccc(C2c3ccc(F)cc3-c3ncncc32)cc1` (stereo not drawn) [Example 6, 8-fluoro-5-(4-fluorophenyl)-5H-indeno[1,2-d]pyrimidine], the EC50 at aromatase came out at 24 nM. Moreover, the response vs control in vivo at 3 mg/kg in test [1] (setting [3]) is 0.7%; in test [1] (setting [4]), 10.2%; in test [1] (setting [5]), 70.3%. In addition, the response vs control in vivo at 30 mg/kg came out at 6.9% in test [1] (setting [3]), 2.9% in test [1] (setting [4]) and 57.1% in test [1] (setting [5]). Also, the “Final Tumor Area ± S.E.” value is 109 ± 62 mm^2 in test [2] (Test III, 10 mg/kg daily by gavage, 6 weeks, control 2053 ± 778) and 393 ± 254 mm^2 in test [2] (Test III, 30 mg/kg daily by gavage, 6 weeks, control 2053 ± 778).
As for `OC1(c2ccccc2Cl)c2ccc(Cl)cc2-c2ncncc21` (stereo not drawn) [Example 22, 8-chloro-5-(2-chlorophenyl)-5H-indeno[1,2-d]pyrimidin-5-ol], on aromatase, the EC50 amounted to 50 nM. Further, the values for the response vs control in vivo at 3 mg/kg in test [1] (setting [3]), in test [1] (setting [4]) and in test [1] (setting [5]) were 70%, 79.4% and 73.4%, respectively. Also, the response vs control in vivo at 30 mg/kg in test [1] (setting [3]) stood at 57.4%; in test [1] (setting [4]), 40.8%; in test [1] (setting [5]), 90.1%.
For `CC(=O)NC1(c2ccc(F)cc2)c2ccccc2-c2ncncc21` (stereo not drawn) [Example 24, N-[5-(4-fluorophenyl)-5H-indeno[1,2-d]pyrimidin-5-yl]acetamide], on aromatase, the EC50 stood at 69 nM. The response vs control in vivo at 3 mg/kg stood at 32.3% in test [1] (setting [3]), 43.2% in test [1] (setting [4]) and 71.9% in test [1] (setting [5]). Besides, the values for the response vs control in vivo at 30 mg/kg in test [1] (setting [3]), in test [1] (setting [4]) and in test [1] (setting [5]) were 23.2%, 19.2% and 59.9%, respectively.
As for `CCC1(c2ccc(N)cc2)CCC(=O)NC1=O` (stereo not drawn) [aminoglutethimide], the “effect in treatment of breast cancer” value in the test with breast cancer is “beneficial effect in treatment of breast cancer”.
In the case of `C[C@]12CCC(=O)C=C1CC[C@@H]1[C@@H]2CC[C@]2(C)OC(=O)CC[C@@H]12` [testololactone], in the test on breast cancer, the “effect in treatment of breast cancer” value is listed as “beneficial effect in treatment of breast cancer”.
